Tests used:
Assay type in all cases: in vivo
rice (Oryza saliva) [1] = experiment: Test B preemergence
In short: (§1)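 Ratings on a 0 to 100 visual scale (100 complete control) compare treated plants with controls 13 to 15 days after application. Treatments were pre- or postemergence sprays of compound in non-phytotoxic solvent with surfactant.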

[2] = test system: crabgrass (Digitaria sanguinalis); experiment: Test B preemergence
In short: as §1

corn (Zea mays) [3] = experiment: Test B preemergence
In short: as §1

[4] = test system: pigweed (Amaranthus retroflexus); experiment: Test B preemergence
In short: as §1

[5] = test system: giant foxtail (Setaria faberii); experiment: Test B preemergence
In short: as §1

[6] = test system: cocklebur (Xanthium strumarium); experiment: Test B preemergence
In short: as §1

[7] = test system: barnyardgrass (Echinochloa crus-galli); experiment: Test B preemergence
In short: as §1

[8] = test system: velvetleaf (Abutilon theophrasti); experiment: Test B preemergence
In short: as §1

[9] = test system: Surinam grass (Brachiaria decumbens); experiment: Test B preemergence
In short: as §1

[10] = test system: morning glory (Ipomoea hederacea); experiment: Test B preemergence
In short: as §1

[11] = test system: lambsquarters (Chenopodium album); experiment: Test B preemergence
In short: as §1

rice (Oryza saliva) [12] = experiment: Test C flooded paddy test; settings: for Rice plant response rating: Flooded Paddy, scale 0 to 100, 0 no effect, 100 complete control; for Plant response rating, Rice: flooded paddy test, scale 0 to 100 (0 no effect, 100 complete control)
In short: (§2)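 2-leaf-stage plants, flooded paddy; treated; greenhouse 12–14 days; compared with controls by eye; rated 0–100 (0 none, 100 complete control).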

[13] = test system: smallflower flatsedge (Cyperus difformis); experiment: Test C flooded paddy test; settings: for Flatsedge plant response rating: Flooded Paddy, scale 0 to 100, 0 no effect, 100 complete control; for Plant response rating, Flatsedge: flooded paddy test, scale 0 to 100 (0 no effect, 100 complete control)
In short: as §2

[14] = test system: barnyardgrass (Echinochloa crus-galli); experiment: Test C flooded paddy test; settings: for Barnyardgrass plant response rating: Flooded Paddy, scale 0 to 100, 0 no effect, 100 complete control; for Plant response rating, Barnyardgrass: flooded paddy test, scale 0 to 100 (0 no effect, 100 complete control)
In short: as §2

[15] = test system: duck salad (Heteranthera limosa); experiment: Test C flooded paddy test; settings: for Ducksalad plant response rating: Flooded Paddy, scale 0 to 100, 0 no effect, 100 complete control; for Plant response rating, Ducksalad: flooded paddy test, scale 0 to 100 (0 no effect, 100 complete control)
In short: as §2

rice (Oryza saliva) [16] = experiment: Test B flooded paddy test; settings: Rate 1000 g/ha, scale of 0 to 100 where 0 is no effect and 100 is complete control, visually evaluated after 13 to 15 days
In short: (§3)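 Treatment: formulated chemical applied to flooded paddy plants at 2-leaf stage. Hold: greenhouse, 13–15 days. Scoring: visual comparison to controls, 0 (no effect) to 100 (complete control).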

[17] = test system: smallflower flatsedge (Cyperus difformis); experiment: Test B flooded paddy test; settings: Rate 1000 g/ha, scale of 0 to 100 where 0 is no effect and 100 is complete control, visually evaluated after 13 to 15 days
In short: as §3

[18] = test system: barnyardgrass (Echinochloa crus-galli); experiment: Test B flooded paddy test; settings: Rate 1000 g/ha, scale of 0 to 100 where 0 is no effect and 100 is complete control, visually evaluated after 13 to 15 days
In short: as §3

[19] = test system: duck salad (Heteranthera limosa); experiment: Test B flooded paddy test; settings: Rate 1000 g/ha, scale of 0 to 100 where 0 is no effect and 100 is complete control, visually evaluated after 13 to 15 days
In short: as §3

[20] = test system: crabgrass (Digitaria sanguinalis); experiment: Test B postemergence; settings: 13 to 15 days
In short: as §1

[21] = test system: wheat (Triticum aestivum); experiment: Test B postemergence; settings: 13 to 15 days
In short: as §1

corn (Zea mays) [22] = experiment: Test B postemergence; settings: 13 to 15 days
In short: as §1

[23] = test system: pigweed (Amaranthus retroflexus); experiment: Test B postemergence; settings: 13 to 15 days
In short: as §1

[24] = test system: giant foxtail (Setaria faberii); experiment: Test B postemergence; settings: 13 to 15 days
In short: as §1

[25] = test system: cocklebur (Xanthium strumarium); experiment: Test B postemergence; settings: 13 to 15 days
In short: as §1

[26] = test system: barnyardgrass (Echinochloa crus-galli); experiment: Test B postemergence; settings: 13 to 15 days
In short: as §1

wild oat (Avena fatua) = experiment: Test B postemergence; settings: 13 to 15 days
In short: as §1

[27] = test system: velvetleaf (Abutilon theophrasti); experiment: Test B postemergence; settings: 13 to 15 days
In short: as §1

[28] = test system: Surinam grass (Brachiaria decumbens); experiment: Test B postemergence; settings: 13 to 15 days
In short: as §1

[29] = test system: morning glory (Ipomoea hederacea); experiment: Test B postemergence; settings: 13 to 15 days
In short: as §1

[30] = test system: lambsquarters (Chenopodium album); experiment: Test B postemergence; settings: 13 to 15 days
In short: as §1

[31] = test system: blackgrass (Alopecurus myosuroides); experiment: Test B postemergence; settings: 13 to 15 days
In short: as §1

[32] = Preemergence, Rate 500 g/ha, scale 0 to 100, 0 no effect, 100 complete control
[33] = preemergence, Rate 125 g/ha, scale of 0 to 100 where 0 is no effect and 100 is complete control, 13 to 15 days
[34] = Rate 125 g/ha, scale 0 (no effect) to 100 (complete control)
[35] = Rate 500 g/ha, scale 0 to 100, 0 is no effect, 100 is complete control

CCC(C)Oc1ccn(C2CCN(c3cccc(C(F)(F)F)c3)C2=O)n1 (stereo not shown) [Compound 58]
80: Plant response rating, Crabgrass [2, 32] | Plant response rating, Flatsedge [17]
90: Plant response rating, Barnyardgrass [18]
30: Flatsedge plant response rating ([13]; Rate 500 g/ha)
0: Plant response rating, Rice (rice (Oryza saliva) [1]; [32]) | Plant response rating, Rice (rice (Oryza saliva) [1]; [33]) | Plant response rating, Crabgrass [2, 33] | Plant response rating, Corn (corn (Zea mays) [3]; [32]) | Plant response rating, Corn (corn (Zea mays) [3]; [33]) | Plant response rating, Pigweed [4, 32] | Plant response rating, Pigweed [4, 33] | Plant response rating, Foxtail, Giant [5, 33] | Plant response rating, Cocklebur [6, 32] | Plant response rating, Cocklebur [6, 33] | Plant response rating, Barnyardgrass [7, 33] | Plant response rating, Velvetleaf [8, 32] | Plant response rating, Surinam grass [9, 32] | Plant response rating, Surinam grass [9, 33] | Plant response rating, Morningglory [10, 32] | Plant response rating, Morningglory [10, 33] | Plant response rating, Lambsquarters [11, 32] | Plant response rating, Lambsquarters [11, 33] | Rice plant response rating (rice (Oryza saliva) [12]; Rate 250 g/ha) | Rice plant response rating (rice (Oryza saliva) [12]; Rate 500 g/ha) | Plant response rating, Rice (rice (Oryza saliva) [12]; Rate 62 g/ha) | Plant response rating, Rice (rice (Oryza saliva) [12]; Rate 125 g/ha) | Flatsedge plant response rating ([13]; Rate 250 g/ha) | Plant response rating, Flatsedge ([13]; Rate 62 g/ha) | Plant response rating, Flatsedge ([13]; Rate 125 g/ha) | Barnyardgrass plant response rating ([14]; Rate 250 g/ha) | Plant response rating, Barnyardgrass ([14]; Rate 62 g/ha) | Plant response rating, Barnyardgrass ([14]; Rate 125 g/ha) | Ducksalad plant response rating ([15]; Rate 250 g/ha) | Ducksalad plant response rating ([15]; Rate 500 g/ha) | Plant response rating, Ducksalad ([15]; Rate 62 g/ha) | Plant response rating, Ducksalad ([15]; Rate 125 g/ha) | Plant response rating, Crabgrass [20, 34] | Plant response rating, Crabgrass [20, 35] | Plant response rating, Wheat [21, 34] | Plant response rating, Wheat [21, 35] | Plant response rating, Corn (corn (Zea mays) [22]; [34]) | Plant response rating, Corn (corn (Zea mays) [22]; [35]) | Plant response rating, Pigweed [23, 34] | Plant response rating, Pigweed [23, 35] | Plant response rating, Foxtail, Giant [24, 34] | Plant response rating, Foxtail, Giant [24, 35] | Plant response rating, Cocklebur [25, 34] | Plant response rating, Cocklebur [25, 35] | Plant response rating, Barnyardgrass [26, 34] | Plant response rating, Barnyardgrass [26, 35] | Plant response rating, Wild Oat (wild oat (Avena fatua); [34]) | Plant response rating, Wild Oat (wild oat (Avena fatua); [35]) | Plant response rating, Velvetleaf [27, 34] | Plant response rating, Velvetleaf [27, 35] | Plant response rating, Surinam grass [28, 34] | Plant response rating, Surinam grass [28, 35] | Plant response rating, Morningglory [29, 34] | Plant response rating, Morningglory [29, 35] | Plant response rating, Lambsquarters [30, 34] | Plant response rating, Lambsquarters [30, 35] | Plant response rating, Blackgrass [31, 34] | Plant response rating, Blackgrass [31, 35]
70: Plant response rating, Foxtail, Giant [5, 32] | Plant response rating, Barnyardgrass [7, 32] | Plant response rating, Ducksalad [19]
20: Barnyardgrass plant response rating ([14]; Rate 500 g/ha) | Plant response rating, Rice (rice (Oryza saliva) [16])

CC(C)(C)c1ccn(C2CCN(c3cc(Cl)cc(Cl)c3)C2=O)n1 (stereo not shown) [Compound 55]
0: Plant response rating, Rice (rice (Oryza saliva) [1]; [32]) | Plant response rating, Rice (rice (Oryza saliva) [1]; [33]) | Plant response rating, Crabgrass [2, 32] | Plant response rating, Crabgrass [2, 33] | Plant response rating, Corn (corn (Zea mays) [3]; [32]) | Plant response rating, Corn (corn (Zea mays) [3]; [33]) | Plant response rating, Pigweed [4, 32] | Plant response rating, Foxtail, Giant [5, 32] | Plant response rating, Foxtail, Giant [5, 33] | Plant response rating, Cocklebur [6, 33] | Plant response rating, Barnyardgrass [7, 32] | Plant response rating, Barnyardgrass [7, 33] | Plant response rating, Velvetleaf [8, 32] | Plant response rating, Velvetleaf [8, 33] | Plant response rating, Surinam grass [9, 32] | Plant response rating, Surinam grass [9, 33] | Plant response rating, Morningglory [10, 32] | Plant response rating, Morningglory [10, 33] | Plant response rating, Lambsquarters [11, 32] | Plant response rating, Lambsquarters [11, 33] | Rice plant response rating (rice (Oryza saliva) [12]; Rate 250 g/ha) | Rice plant response rating (rice (Oryza saliva) [12]; Rate 500 g/ha) | Plant response rating, Rice (rice (Oryza saliva) [12]; Rate 62 g/ha) | Plant response rating, Rice (rice (Oryza saliva) [12]; Rate 125 g/ha) | Plant response rating, Barnyardgrass ([14]; Rate 62 g/ha) | Plant response rating, Ducksalad ([15]; Rate 62 g/ha) | Plant response rating, Rice (rice (Oryza saliva) [16]) | Plant response rating, Crabgrass [20, 34] | Plant response rating, Crabgrass [20, 35] | Plant response rating, Wheat [21, 34] | Plant response rating, Wheat [21, 35] | Plant response rating, Corn (corn (Zea mays) [22]; [34]) | Plant response rating, Corn (corn (Zea mays) [22]; [35]) | Plant response rating, Pigweed [23, 34] | Plant response rating, Pigweed [23, 35] | Plant response rating, Foxtail, Giant [24, 34] | Plant response rating, Foxtail, Giant [24, 35] | Plant response rating, Barnyardgrass [26, 34] | Plant response rating, Barnyardgrass [26, 35] | Plant response rating, Wild Oat (wild oat (Avena fatua); [34]) | Plant response rating, Wild Oat (wild oat (Avena fatua); [35]) | Plant response rating, Velvetleaf [27, 34] | Plant response rating, Velvetleaf [27, 35] | Plant response rating, Surinam grass [28, 34] | Plant response rating, Surinam grass [28, 35] | Plant response rating, Morningglory [29, 34] | Plant response rating, Lambsquarters [30, 34] | Plant response rating, Lambsquarters [30, 35] | Plant response rating, Blackgrass [31, 34] | Plant response rating, Blackgrass [31, 35]
50: Plant response rating, Barnyardgrass ([14]; Rate 125 g/ha) | Ducksalad plant response rating ([15]; Rate 250 g/ha) | Ducksalad plant response rating ([15]; Rate 500 g/ha)
90: Flatsedge plant response rating ([13]; Rate 250 g/ha) | Plant response rating, Flatsedge ([13]; Rate 125 g/ha)
100: Flatsedge plant response rating ([13]; Rate 500 g/ha) | Barnyardgrass plant response rating ([14]; Rate 250 g/ha) | Barnyardgrass plant response rating ([14]; Rate 500 g/ha) | Plant response rating, Flatsedge [17] | Plant response rating, Barnyardgrass [18]
30: Plant response rating, Morningglory [29, 35]
80: Plant response rating, Ducksalad [19]
40: Plant response rating, Flatsedge ([13]; Rate 62 g/ha) | Plant response rating, Ducksalad ([15]; Rate 125 g/ha)
10: Plant response rating, Cocklebur [25, 34] | Plant response rating, Cocklebur [25, 35]

— patent US7138361B2, “Herbicidal heterocycles” (E. I. du Pont de Nemours and Company, priority 2000, dated 2006)
